Legend:
prolyl endopeptidase = prolyl endopeptidase (Elizabethkingia meningoseptica, UniProt P27028); experiment: Anti-prolyl endopeptidase activity (inhibition of digestion of Z-glycyl-prolyl-β-naphthylamide); format: biochemical; details: amount for 50% inhibition; 0.0025M Z-glycyl-prolyl-β-naphthylamide (0.25 ml), pH 7.0, 35° C., 10 minutes, absorbance at 410 nm
Protocol: The method of Yoshimoto and Tsuru [T. Yoshimoto and D. Tsuru, Agric. Biol. Chem., 42, 2417 (1978)] was used to measure the anti-prolyl endopeptidase activities of several compounds of the present invention. A mixture of 0.0025M Z-glycyl-prolyl-β-naphthylamide (0.25 ml), 0.1M phosphate buffer (pH, 7.0; 0.99 ml) and a solution of a particular anti-prolyl endopeptidase compound (0.01 ml) was incubated in a test tube at 37° C. for 3 minutes. Thereafter, 0.1 ml of a solution of prolyl endopeptidase (0.2 U/ml) was added and the mixture was incubated at 35° C. for 10 minutes. After the reaction, 2.0 ml of Triton X-100 in 1M acetate buffer (pH, 4.0) was added to the reaction mixture so that the final concentration of the surfactant might be 10%. The mixture was left at room temperature for 15 minutes and the absorbance (a) at 410 nm was measured.
A sample of a blind test was prepared by using the buffer instead of the anti-prolyl endopeptidase compound and its absorbance (b) was also measured. The percentage of inhibition against prolyl endopeptidase was calculated by the formula: […]
and the amount of a specific compound need to achieve 50% inhibition (IC50) was determined.

DDY strain male mice = experiment: Memory fixation test in mice (passive avoidance learning); format: in vivo; details: 5 mice, assessed 24 hours after learning, physiological saline control 47 sec.
Protocol: The measurement was conducted in accordance with the method described in Experientia 40, 506 (1984) with a slight modification made by the inventors. Several of the compounds of the invention were checked for their ability to enhance long-term memory fixation in the passive avoidance learning method using an apparatus which has an electrifiable grid floor and a refuge platform on one end of the floor. […] One hour after the administration, electric shocks were applied to the mice in a black box so that they would acquire passive avoidance learning.
The results of the test were assessed 24 hours after the learning in terms of the memory fixation acquired in the passive avoidance learning by measuring the residence time (latency) during which the mice stayed on the platform. The results between the test groups which received the test compound and the control group which received physiological saline in place of the test compound were compared.

prolyl endopeptidase, sequence (P27028 21-705): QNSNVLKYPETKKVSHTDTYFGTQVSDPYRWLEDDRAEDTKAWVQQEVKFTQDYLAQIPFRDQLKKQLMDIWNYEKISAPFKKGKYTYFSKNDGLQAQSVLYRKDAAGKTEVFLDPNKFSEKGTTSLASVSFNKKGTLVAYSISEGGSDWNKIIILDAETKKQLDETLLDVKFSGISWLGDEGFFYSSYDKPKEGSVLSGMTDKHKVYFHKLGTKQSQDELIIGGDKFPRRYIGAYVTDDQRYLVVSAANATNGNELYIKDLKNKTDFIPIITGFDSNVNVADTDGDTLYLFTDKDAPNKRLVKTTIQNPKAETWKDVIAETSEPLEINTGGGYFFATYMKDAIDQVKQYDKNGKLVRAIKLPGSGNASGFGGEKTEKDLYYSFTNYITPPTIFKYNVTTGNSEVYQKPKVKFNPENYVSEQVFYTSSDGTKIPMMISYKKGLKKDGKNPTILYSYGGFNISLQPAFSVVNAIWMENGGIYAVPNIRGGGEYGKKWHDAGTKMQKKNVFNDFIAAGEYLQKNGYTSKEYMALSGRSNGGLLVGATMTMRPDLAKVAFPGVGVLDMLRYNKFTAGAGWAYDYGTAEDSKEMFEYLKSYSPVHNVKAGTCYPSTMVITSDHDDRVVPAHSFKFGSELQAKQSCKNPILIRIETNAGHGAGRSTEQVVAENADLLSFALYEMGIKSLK

| Structure (SMILES) | IC50 (prolyl endopeptidase) [μg/test tube] | Latency (DDY strain male mice; 1.0 mg/kg per os) [s] | Latency (DDY strain male mice; 3.0 mg/kg per os) [s] | Latency (DDY strain male mice; 0.3 mg/kg per os) [s] |
| --- | --- | --- | --- | --- |
| O=C([C@@H]1C[C@@H](O)CN1C(=O)CCCc1ccccc1)N1CCCC1 [SUAM 14432, N-[N-(4-phenylbutanoyl)-trans-4-hydroxy-L-prolyl]pyrrolidine] | 0.07 | 76 | 153 | – |
| COc1ccc(O[C@H]2C[C@@H](C(=O)N3CCCC3)N(C(=O)CCCc3ccccc3)C2)cc1 [SUAM 14441, N-[N-(4-phenylbutanoyl)-cis-4-(4-methoxyphenoxy)-L-prolyl]pyrrolidine] | 0.01 | 101 | – | – |
| COc1ccccc1O[C@H]1C[C@@H](C(=O)N2CCCC2)N(C(=O)CCCc2ccccc2)C1 [SUAM 14467, N-[N-(4-phenylbutanoyl)-cis-4-(2-methoxyphenoxy)-L-prolyl]pyrrolidine] | 0.008 | – | – | – |
| COc1cccc(O[C@H]2C[C@@H](C(=O)N3CCCC3)N(C(=O)CCCc3ccccc3)C2)c1 [SUAM 14468, N-[N-(4-phenylbutanoyl)-cis-4-(3-methoxyphenoxy)-L-prolyl]pyrrolidine] | 0.03 | – | – | – |
| COc1ccc(O[C@H]2C[C@@H](C(=O)N3CCCC3)N(C(=O)OCc3ccccc3)C2)cc1 [SUAM 14491, N-[N-benzyloxycarbonyl-cis-4-(4-methoxyphenoxy)-L-prolyl]pyrrolidine] | 0.04 | – | – | – |
| O=C([C@@H]1C[C@H](O)CN1C(=O)CCCc1ccccc1)N1CCCC1 [SUAM 14496, N-[N-(4-phenylbutanoyl)-cis-4-hydroxy-L-prolyl]pyrrolidine] | 0.10 | 138 | 135 | 147 |
| COc1ccc(C(=O)O[C@@H]2C[C@@H](C(=O)N3CCCC3)N(C(=O)CCCc3ccccc3)C2)cc1 [SUAM 14497, N-[N-4-phenylbutanoyl)-trans-4-(4-methoxybenzoyloxy-L-prolyl]pyrrolidine] | 0.15 | – | – | – |
| O=C(O[C@@H]1C[C@@H](C(=O)N2CCCC2)N(C(=O)CCCc2ccccc2)C1)c1ccccc1 [SUAM 14498] | 0.30 | – | – | – |
| O=C(O[C@@H]1C[C@@H](C(=O)N2CCCC2)N(C(=O)CCCc2ccccc2)C1)c1ccc(Cl)cc1 [SUAM 14499, N-[N-(4-phenylbutanoyl)-trans-4-(4-chlorobenzoyloxy)-L-prolyl]pyrrolidine] | 0.20 | – | – | – |
| COc1ccc(C(=O)O[C@H]2C[C@@H](C(=O)N3CCCC3)N(C(=O)CCCc3ccccc3)C2)cc1 [SUAM 14501] | 0.04 | – | – | – |
| O=C(O[C@H]1C[C@@H](C(=O)N2CCCC2)N(C(=O)CCCc2ccccc2)C1)c1ccccc1 [SUAM 14502, N-[N-(4-phenylbutanoyl)-cis-4-benzoyloxy-L-prolyl]pyrrolidine] | 0.06 | – | – | – |
| O=C(O[C@H]1C[C@@H](C(=O)N2CCCC2)N(C(=O)CCCc2ccccc2)C1)c1ccc(Cl)cc1 [SUAM 14503, N-[N-(4-phenylbutanoyl)-cis-4-(4-chlorobenzoyloxy)-L-prolyl]pyrrolidine] | 0.06 | – | – | – |
| O=C([C@@H]1C[C@H](Oc2ccccc2)CN1C(=O)CCCc1ccccc1)N1CCCC1 [SUAM 14504, N-[N-(4-phenylbutanoyl)-cis-4-phenoxy-L-prolyl]pyrrolidine] | 0.02 | – | – | – |
| CC(=O)O[C@@H]1C[C@@H](C(=O)N2CCCC2)N(C(=O)CCCc2ccccc2)C1 [SUAM 14506, N-[N-(4-phenylbutanoyl)-trans-4-acetoxy-L-prolyl]pyrrolidine] | 0.03 | – | 64 | – |
| CC(=O)O[C@H]1C[C@@H](C(=O)N2CCCC2)N(C(=O)CCCc2ccccc2)C1 [SUAM 14507, N-[N-(4-phenylbutanoyl)-cis-4-acetoxy-L-prolyl]pyrrolidine] | 0.10 | – | 53 | – |
| O=C([C@@H]1C[C@H](Oc2ccc(Cl)cc2)CN1C(=O)CCCc1ccccc1)N1CCCC1 [SUAM 14508, N-[N-(4-phenylbutanoyl)-cis-4-(4-chlorophenoxy)-L-prolyl]pyrrolidine] | 0.04 | – | – | – |
| Cc1ccc(O[C@H]2C[C@@H](C(=O)N3CCCC3)N(C(=O)CCCc3ccccc3)C2)cc1 [SUAM 14509, N-[N-(4-phenylbutanoyl)-cis-4-(4-methylphenoxy)-L-prolyl]pyrrolidine] | 0.03 | – | 95 | – |

— patent publication US4810721A, “Pyrrolidineamide derivative having anti-prolyl endopeptidase” (Suntory Limited, priority 1986, dated 1989)
